Data on one compound can be found in patent US20180193327A1, “PROPHYLACTIC LEUKOTRIENE INHIBITOR AND IMPLANT DISPLACEMENT THERAPY FOR PREVENTION AND TREATMENT OF CAPSULAR CONTRACTURE IN SILICONE BREAST AUGMENTATION” (priority 2017, published 2018).

Data set [1] is described as follows: Side effects and discontinuation reported by patients taking leukotriene inhibitors after primary augmentation. The format is in vivo, patients (women). The procedure: Patients that were administered Singulair were treated according to the method described in FIGS. 1 and 2 of the present disclosure. First, patients were evaluated clinically to see if they were a candidate for breast augmentation with physical examination and medical history. The medical history review included discussion and review of liver health, current medications, and potential contraindications or drug interactions with leukotriene inhibitors. Patients were then provided an informed consent for the use of Singulair, 10 mg daily. The informed consent reviewed the potential benefits and risks of this medication which is taken as an off-label indication. Breast augmentation was performed with either smooth or textured silicone or saline implants. On the day following surgery, Singulair therapy is initiated, 10 mg QD. In the first week following surgery, the implant displacement therapy protocol was begun for patients with smooth surface silicone implants. The implant displacement therapy protocol may also be performed, if indicated, for patients with mildly textured breast implants, but not with moderately textured or highly textured devices. Monitoring for side effects from Singulair was conducted by educating patients as to the common side effects and discussing with patients noted side effects. Singulair can be discontinued if the side effects are significant. At thirty days postoperatively, the softness of the breast implants as well as the implant movement and position was evaluated to determine if capsular contracture was present. Two more months of Singulair was prescribed. Following three total months of therapy, the breasts were evaluated for the presence of capsular contracture. Patients without clinical capsular contracture, Baker I and II, were completed with therapy. Patients with clinical capsular contracture, either Baker III or IV, were treated with an additional three months of Singulair therapy as prescribed with the continuation of implant displacement therapy protocol. If patients declined to take Singulair or had side effects from the medication, implant displacement therapy protocol was continued and patients were offered 800 units-1000 units of Vitamin E daily in lieu of Singulair.
Patients that were administered Accolate were treated according to the method described in FIGS. 1 and 2 of the present disclosure. First, patients were evaluated clinically to see if they were a candidate for breast augmentation with physical examination and medical history. The medical history review included discussion and review of liver health, current medications, and potential contraindications or drug interactions with leukotriene inhibitors. Patients were then provided an informed consent for the use of Accolate (Zafirlukast), 20 mg twice daily. Patients were counseled to take the medication at least one hour before meals. The informed consent reviews the potential benefits and risks of this medication which is taken as an off-label indication. Breast augmentation was performed with either smooth or textured silicone or saline implants. On the day following surgery, Accolate therapy was initiated, 20 mg BID. In the first week following surgery, the implant displacement therapy protocol was begun for patients with smooth surface silicone implants. The implant displacement therapy protocol may also be performed, if indicated, for patients with mildly textured breast implants, but not with moderately textured or highly textured devices. […]

Data set [2] has as its system capsular contracture in patients undergoing capsulectomy and silicone implant replacement. Briefly: Recurrence of capsular contracture (Baker scale) at one year after capsulectomy and silicone implant replacement. The format is in vivo. As for the experimental part:
The study was performed with patients undergoing primary capsulectomy and silicone implant replacement for grade III and IV capsular contracture according to the methods depicted in FIGS. 3 and 4 of the present disclosure. […] Patients with a history of subglandular breast augmentation or those who underwent concurrent mastopexy revision or replacement with textured silicone breast implants were not included in the study. Enrolled patients underwent surgery with either an inframammary or periareolar incision.
One group of patients underwent capsulectomy and implant replacement without the use of leukotriene inhibitors. Another group of patients agreed to the off-label use of zafirlukast (Accolate; AstraZeneca Pharmaceuticals, Wilmington, Del.) and were treated beginning the day following the capsulectomy and implant replacement procedure. All patients were between the ages of 22 and 60 years of age and consented to the use of Mentor Memory Gel silicone gel breast implants with a smooth surface (Mentor Worldwide, Irvine, Calif.) and the off-label use of triple-antibiotic irrigation containing povidone-iodine (Betadine; Purdue Frederick Co., Norwalk, Conn.). In addition, a detailed informed consent was provided for the off-label use of Accolate. All patients were adequately informed of the risks, potential unknown benefits, cost, and potential side effects of leukotriene therapy with both verbal and written consent. Patients were informed that taking Accolate was voluntary and that they could discontinue this medication at any time for any reason.
Patients undergoing capsulectory and re-augmentation were treated with the incision initially used by the original surgeon, with either an inframmary or periareolar approach. All patients were surgically treated with complete periprosthetic capsulectomy. Patients were also treated with preoperative intravenous antibiotics, either a 1-g dose of cephazolin or 600 mg of clindamycin, selected based on allergy profiles. Before insertion of implants, triple-antibiotic irrigation [50,000 U of bacitracin, 1 g of Ancef (GlaxoSmithKline, Middlesex, United Kingdom), and 80 mg of gentamicin] with the addition of 50 ml of povidone-iodine in 500 ml of normal saline was used.
Hemovac ⅛ inch drains (Medline Industries, Rialto, Calif.) were used on all breasts receiving capsulectomy. All implants were placed with powder-free glove changes and inserted through a skin barrier/nipple shield using Tegaderm (3M, St. Paul, Minn.) dressings. Drains were left in place until drainage from one breast reached 30 ml/24 hrs, or 60 ml/24 hrs if both breasts were treated. The implant displacement therapy protocol was initiated two days after drains were removed.
Patients were treated with Accolate 20 mg twice daily, beginning the day after surgery. Patients with a history of hepatitis or liver disease were excluded. Patient compliance with the recommended dosage was encouraged, but patients were advised that they could discontinue the medication at any time that they experienced significant side effects. All patients receiving Accolate therapy underwent liver function studies 4 weeks after the initiation of Accolate therapy. […] Follow-up liver function studies were performed at 2-week intervals, until transaminases normalized. […] Liver function studies were repeated after 3 months of Accolate therapy for patients choosing to continue Accolate for a 6-month course.
All patients were evaluated at frequent follow-up appointments, including early postoperative visits, 1 month, 3 months, 6 months, and 1 year postoperatively. Capsular contracture was evaluated by the Baker scale. Patients with grade III or IV capsular contractures were considered as having clinical capsular contracture. Each patient was considered based on the number of their breasts associated with clinical capsular contracture ranging from none to two breasts. […]

Setting [3] is: preoperative Grade III (172 breasts).
[4] abbreviates: preoperative Grade IV (194 breasts).
Setting [5] is: preoperative Total III/IV (366 breasts).

Take `COc1cc(C(=O)NS(=O)(=O)c2ccccc2C)ccc1Cc1cn(C)c2ccc(NC(=O)OC3CCCC3)cc12` [Accolate, Zafirlukast]: the “Percentage of patients discontinuing the medication because of (minor) side effects or cost” value in data set [1] (female, human, in vivo, 3 months) was 6.2%. In addition, the “Irreversible side effects noted in the study” value in data set [1] (human, in vivo) is listed as “no irreversible side effects”. Also, the “Patients who tolerated the medication well” value in data set [1] (primary augmentation study) is about 95%. In data set [2] (setting [3]), the “Number of breasts with capsular contracture, postoperative Grade III” value (from here on “Number of breasts … postoperative Grade III”) is on record as 7; the “Number of breasts with capsular contracture, postoperative Grade IV” value (from here on “Number of breasts … postoperative Grade IV”) turned out to be 2; the “Number of breasts with capsular contracture, postoperative Total” value (“Number of breasts … postoperative Total” for short) is listed as 9; the “Percent of breasts with capsular contracture, postoperative Grade III” value (from here on “Percent of breasts … postoperative Grade III”) came out at 4.1%. Also, in data set [2] (setting [3]), the “Percent of breasts with capsular contracture, postoperative Grade IV” value (shortened to “Percent of breasts … postoperative Grade IV”) was 1.2% and the “Percent of breasts with capsular contracture, postoperative Total” value (shortened to “Percent of breasts … postoperative Total”) was found to be 5.3%. Also, in data set [2] (setting [4]), the “Number of breasts … postoperative Grade III” value was found to be 15; the “Number of breasts … postoperative Grade IV” value is reported as 5; the “Number of breasts … postoperative Total” value was 20; the “Percent of breasts … postoperative Grade III” value was determined as 7.8%. In data set [2] (setting [4]), the “Percent of breasts … postoperative Grade IV” value is listed as 2.6% and the “Percent of breasts … postoperative Total” value was determined as 10.3%. Further, in data set [2] (setting [5]), the “Number of breasts … postoperative Grade III” value was 22; the “Number of breasts … postoperative Grade IV” value was 7; the “Number of breasts … postoperative Total” value was determined as 29; the “Percent of breasts … postoperative Grade III” value is given as 6.0%. In data set [2] (setting [5]), the “Percent of breasts … postoperative Grade IV” value was found to be 1.9% and the “Percent of breasts … postoperative Total” value is on record as 7.9%.
